The text below walks through data of patent publication US8901072B2, “Glycopeptide and lipoglycopeptide antibiotics with improved solubility” (The Medicines Company, priority 2009, dated 2014).

In brackets after ≈: the same amount, converted by molar mass. A value given as a limit tells only on which side of the number the result lay.

The nature of data set [1]: Solubility in phosphate buffered saline. To be noted: 10 mM phosphate buffered saline (0.138 M NaCl, 2.7 mM KCl), pH 7.4. The data set is classed as physicochemical. As for the experimental part: To a sample of the material of known mass were added known volumes of phosphate buffered saline until complete dissolution is observed. Suspensions were centrifuged for 5 min at 10000 rpm. […] Upon complete dissolution, the solution is diluted until the final concentration is 0.5 mg/mL to ensure that the material remains soluble over the entire range of concentrations.

Data set [2] deals with S. aureus ATCC 13709. Kind of data set: In vitro antibacterial susceptibility (MIC, broth microdilution). The data set is classed as cell-based. Conditions: for MIC against S. aureus ATCC 13709, CAMHB: cation-adjusted Mueller-Hinton broth, 37° C., 18 h; for Antibacterial activity compared with oritavancin 5: deduced from the MIC data of Table 2. As for the experimental part:
Susceptibility of S. aureus strain ATCC13709 to oritavancin (5) and synthesized compounds was determined following the guidelines set by the Clinical and Laboratory Standards Institute (formerly the National Committee for Clinical Laboratory Standards) (M26-A). Compounds were serially diluted two-fold in either DMSO (Oritavancin 5) or in PBS and transferred to cation-adjusted Mueller Hinton broth (CAMHB; Becton Dickinson). 50 μL of compounds diluted in CAMHB was mixed with 100 μL of bacteria diluted in CAMHB in 96-well microtiter plates. The final number of micro-organisms in the assay was 5×10^5 c.f.u. per mL and the final concentration of DMSO in the assay, if present, was 1.25%. All solutions may contain 0.002% Tween as indicated. Assays were set up in duplicate and incubated at 37° C. for 18 h. The concentration of compound that inhibited visible growth was reported as the minimum inhibitory concentration (MIC).

The test system of data set [3] is S. aureus strain ATCC13709. The experiment in a line: Neutropenic mouse thigh infection model. The class given is in vivo, mice. To be noted: neutropenic mice, 24 h postinfection. As for the experimental part: The susceptibility of S. aureus strain ATCC13709 to oritavancin (5) and selected synthesized compounds in vivo was evaluated with the well accepted neutropenic mouse thigh infection model (Craig, W. A. et al. Journal of Antimicrobial Chemotherapy (1991), 27 (Suppl. C):29-40). Mice were made neutropenic by treatment with cyclophosphamide (150 and 100 mg/kg of body weight administered intraperitoneally 4 days and 1 day prior to infection). Mice were anesthetized briefly with approximately 4% isoflurane just prior to inoculation. The bacterial suspension (0.1 mL) was injected intramuscularly into each thigh (approximately 10^5 colony forming units (CFU)/thigh). The selected agents were administered in 10% (w/w) β-hydroxypropylcyclodextrin in water at a concentration of 10 mg/mL one hour following bacterial inoculation. The animals were humanely sacrificed by CO2 asphyxiation 24 h postinfection. The entire thigh muscle mass including the bone was homogenized and diluted in 0.9% saline and aliquots were plated on Brain-Heart Infusion agar. Following overnight incubation at 37° C., bacteria were enumerated for each thigh and expressed as log10 CFU per thigh. This was performed over three independent experiments and oritavancin (5) was used as a comparator in each.

For the compound `CC(C)CC(C(=O)NC1C(=O)NC(CC(N)=O)C(=O)NC2C(=O)NC3C(=O)NC(C(=O)NC(C(=O)O)c4cc(O)cc(O)c4-c4cc3ccc4O)C(OC3CC(C)(N)C(O)C(C)O3)c3ccc(c(Cl)c3)Oc3cc2cc(c3OC2OC(CO)C(O)C(O)C2OC2CC(C)(NCc3ccc(-c4ccc(Cl)cc4)cc3)C(O)C(C)O2)Oc2ccc(cc2Cl)C1O)N(C)C(=O)OCOC(=O)CCC(=O)NC(CCC(=O)O)(CCC(=O)O)CCC(=O)O` (stereo not shown) [Compound 78], in data set [1], the “Solubility (mg/mL) PBS” value turned out to be 4 mg/mL (≈ 1820 µM). For the same compound, in data set [2], the “MIC against S. aureus ATCC 13709, CAMHB + 0.002% tween” value (“MIC … CAMHB + 0.002% tween” below) is 1 µg/mL; the “MIC against S. aureus ATCC 13709, CAMHB + 50% human serum” value (“MIC … CAMHB + 50% human serum” below) worked out at 16 µg/mL; the “MIC against S. aureus ATCC 13709, CAMHB + 50% mouse serum” value (shortened to “MIC … CAMHB + 50% mouse serum”) turned out to be 32 µg/mL; the “MIC against S. aureus ATCC 13709, CAMHB” value worked out at 8 µg/mL (≈ 3.64 µM). Further, in data set [2], the “Antibacterial activity compared with oritavancin 5” value is listed as “weaker activities”.
With `CC(C)CC(C(=O)NC1C(=O)NC(CC(N)=O)C(=O)NC2C(=O)NC3C(=O)NC(C(=O)NC(C(=O)O)c4cc(O)cc(O)c4-c4cc3ccc4O)C(OC3CC(C)(N)C(O)C(C)O3)c3ccc(c(Cl)c3)Oc3cc2cc(c3OC2OC(CO)C(O)C(O)C2OC2CC(C)(NCc3ccc(-c4ccc(Cl)cc4)cc3)C(O)C(C)O2)Oc2ccc(cc2Cl)C1O)N(C)C(=O)OCOC(=O)CCP(=O)(O)O` (stereo not shown) [Compound 84], the “Solubility (mg/mL) PBS” value in data set [1] lay within 0.5 to 1 mg/mL. Besides, in data set [2], the “MIC … CAMHB + 0.002% tween” value came out at 0.125 µg/mL; the “MIC … CAMHB + 50% human serum” value turned out to be 0.5 µg/mL; the “MIC … CAMHB + 50% mouse serum” value was determined as 2 µg/mL; the “MIC against S. aureus ATCC 13709, CAMHB” value stood at 1 µg/mL (≈ 0.499 µM). In addition, in data set [2], the “Antibacterial activity compared with oritavancin 5” value is given as “within an order of magnitude of that of oritavancin 5”.
`CNC(CC(C)C)C(=O)NC1C(=O)NC(CC(N)=O)C(=O)NC2C(=O)NC3C(=O)NC(C(=O)NC(C(=O)OCC(=O)NCCN)c4cc(O)cc(O)c4-c4cc3ccc4O)C(OC3CC(C)(N)C(O)C(C)O3)c3ccc(c(Cl)c3)Oc3cc2cc(c3OC2OC(CO)C(O)C(O)C2OC2CC(C)(NCc3ccc(-c4ccc(Cl)cc4)cc3)C(O)C(C)O2)Oc2ccc(cc2Cl)C1O` (stereo not shown) [Compound 90a]: the “Solubility (mg/mL) PBS” value in data set [1] was “≧100 mg/mL”. In data set [2], the “MIC … CAMHB + 0.002% tween” value turned out to be 0.5 µg/mL; the “MIC … CAMHB + 50% human serum” value amounted to 0.25 µg/mL; the “MIC … CAMHB + 50% mouse serum” value came to 0.5 µg/mL; the “MIC against S. aureus ATCC 13709, CAMHB” value was 1 µg/mL (≈ 0.528 µM). Moreover, the “Antibacterial activity compared with oritavancin 5” value in data set [2] is given as “within an order of magnitude of that of oritavancin 5”. Moreover, in data set [3] (1 mg/kg one hour after inoculation), the “Recovered bacterial titers per thigh, 1 mg/kg” value was 8.38 ± 0.23 Log10 CFU/thigh. The “Recovered bacterial titers per thigh, 10 mg/kg” value in data set [3] (10 mg/kg one hour after inoculation) is 6.13 ± 2.53 Log10 CFU/thigh. In data set [3] (40 mg/kg one hour after inoculation), the “Recovered bacterial titers per thigh, 40 mg/kg” value turned out to be 5.27 ± 2.66 Log10 CFU/thigh.
Turning to `CNC(CC(C)C)C(=O)NC1C(=O)NC(CC(N)=O)C(=O)NC2C(=O)NC3C(=O)NC(C(=O)NC(C(=O)OCC(=O)NCCCCN)c4cc(O)cc(O)c4-c4cc3ccc4O)C(OC3CC(C)(N)C(O)C(C)O3)c3ccc(c(Cl)c3)Oc3cc2cc(c3OC2OC(CO)C(O)C(O)C2OC2CC(C)(NCc3ccc(-c4ccc(Cl)cc4)cc3)C(O)C(C)O2)Oc2ccc(cc2Cl)C1O` (stereo not shown) [Compound 90c], the “Solubility (mg/mL) PBS” value in data set [1] is recorded as less than 1.6 mg/mL. For the same compound, in data set [2], the “MIC … CAMHB + 0.002% tween” value worked out at 0.25 µg/mL; the “MIC … CAMHB + 50% human serum” value came to 0.125 µg/mL; the “MIC … CAMHB + 50% mouse serum” value was 0.5 µg/mL; the “MIC against S. aureus ATCC 13709, CAMHB” value is 1 µg/mL (≈ 0.52 µM). Also, the “Antibacterial activity compared with oritavancin 5” value in data set [2] is given as “within an order of magnitude of that of oritavancin 5”.
Take `CNC(CC(C)C)C(=O)NC1C(=O)NC(CC(N)=O)C(=O)NC2C(=O)NC3C(=O)NC(C(=O)NC(C(=O)OCC(=O)N(C)CCN(C)C)c4cc(O)cc(O)c4-c4cc3ccc4O)C(OC3CC(C)(N)C(O)C(C)O3)c3ccc(c(Cl)c3)Oc3cc2cc(c3OC2OC(CO)C(O)C(O)C2OC2CC(C)(NCc3ccc(-c4ccc(Cl)cc4)cc3)C(O)C(C)O2)Oc2ccc(cc2Cl)C1O` (stereo not shown) [Compound 103]: the “Solubility (mg/mL) PBS” value in data set [1] is given as “≧100 mg/mL”. In data set [2], the “MIC … CAMHB + 0.002% tween” value is 0.25 µg/mL; the “MIC … CAMHB + 50% human serum” value is 0.25 µg/mL; the “MIC … CAMHB + 50% mouse serum” value turned out to be 0.5 µg/mL; the “MIC against S. aureus ATCC 13709, CAMHB” value was found to be 2 µg/mL (≈ 1.03 µM). In addition, the “Antibacterial activity compared with oritavancin 5” value in data set [2] is reported as “within an order of magnitude of that of oritavancin 5”. In addition, in data set [2] (CAMHB + 50% rat serum), the “MIC against S. aureus ATCC 13709, CAMHB + 50% rat serum” value is 0.125 µg/mL.
